Experiments:
[1] = test system: MYPT1 Ser445 phosphorylation; assay: MYPT1 Ser445 phosphorylation on EDTA-induced detachment, HEK-293; format: cell-based, human; details: HEK-293, 16 h; for Suppression of MYPT1 Ser445 phosphorylation (in words): HTH-01-015 at 10 μM
Experimental: HEK (human embryonic kidney)-293 and U2OS cells were cultured in DMEM (Dulbecco's modified Eagle's medium) supplemented with 10% FBS, 2 mM glutamine and 1×antibacterial/antimycotic solution. NUAK1^+/+ and NUAK1^−/− MEFs were cultured in DMEM supplemented with 10% (v/v) FBS and 2 mM glutamine, 1×antibacterial/antimycotic solution, 1% (v/v) non-essential amino acids and 1% (v/v) sodium pyruvate. HEK-293 Flp/In T-Rex cell lines were cultured in DMEM supplemented with 10% (v/v) FBS and 2 mM glutamine, 1×antibacterial/antimycotic solution, 100 μg/ml hygromycin and 15 μg/ml blasticidin. Supplementing the culture medium with 0.1 μg/ml doxycycline for 16–24 h induced protein expression in the HEK-293 Flp/In T-Rex cells. Cell counting was carried out using Invitrogen Countess following the manufacturer's protocol. A cell-detachment assay was carried out on HEK-293 cells using PBS-EDTA-based cell dissociation buffer as described previously. An inhibitor dose-dependence assay was carried out by treating the cells with various concentrations of the inhibitors as indicated in the Figure legends. The inhibitors were dissolved in DMSO and the total concentration of DMSO in the culture media never exceeded 1%. Transient transfections of HEK-293 cells were carried out using PEI [24]. Stable transfections were carried out in HEK-293 Flp/In T-Rex cells (Invitrogen) following the manufacturer's protocol. Lentivirus-mediated knock down of NUAK1 was carried out in U2OS cells using shRNA constructs as described previously. Post-treatment and/or transfection, cells were lysed in lysis buffer containing 50 mM Tris/HCl (pH 7.5), 1 mM EGTA, 1 mM EDTA, 1% Triton X-100, 50 mM NaF, 10 mM sodium 2-glycerophosphate, 5 mM sodium pyrophosphate, 1 mM sodium orthovanadate, 0.27 M sucrose, 1 mM benzamidine (added before lysis), 1 mM PMSF (added before lysis) and 0.1% 2-mercaptoethanol (added before lysis). Lysates were clarified by centrifugation at 16000 g for 15 min at 4°C and either used for further experiments or snap-frozen in liquid nitrogen and stored at −80°C. Protein estimation was carried out using the Bradford method with BSA as a standard.
Figure 5 HTH-01-015 and WZ4003 inhibit MYPT1 Ser^445 phosphorylation in vivo (A) HEK-293 cells were treated in the absence (DMSO) or presence of the indicated concentrations of WZ4003 over 16 h. Cell medium was then replaced with either normal DMEM containing no EDTA-PBS-based cell dissociation buffer (−) or EDTA-PBS-based cell dissociation buffer (+) containing the same concentration of WZ4003 that the cells were previously incubated in. Cell detachment was induced with gentle tapping of the plates followed by gentle centrifugation at 70 g for 3 min. Cells were lysed immediately after removal of the supernatant. Endogenous MYPT1 was immunoprecipitated from 0.5 mg of the cell lysates. The immunoprecipitates were immunoblotted for the detection of p-Ser^445 MYPT1 and total MYPT1. The cell lysates were subjected to immunoblotting for the detection of p-Ser^79 ACC and total ACC. Similar results were obtained in three separate experiments. (B) As in (A) except for the HTH-01-015 inhibitor was used. (C–F) As above except that HEK-293 Flp/In T-Rex cells stably expressing the indicated wild-type HA-tagged NUAK1 or drug-resistant HA-tagged NUAK1[A195T] were used. Similar results were obtained in three separate experiments for all data shown on this Figure.

NUAK1 = target: T1, NUAK1 (Homo sapiens, UniProt O60285); assay: GST–NUAK1 Sakamototide peptide kinase assay; format: biochemical; details: 200 μM Sakamototide, 100 μM [γ-32P]ATP; read-out: IC50 for NUAK1 (wild-type GST–NUAK1)
T1 construct: made in house; host or cells: HEK-293 cells, transient transfection of pEBG2T construct
T1 sequence (O60285 1-661): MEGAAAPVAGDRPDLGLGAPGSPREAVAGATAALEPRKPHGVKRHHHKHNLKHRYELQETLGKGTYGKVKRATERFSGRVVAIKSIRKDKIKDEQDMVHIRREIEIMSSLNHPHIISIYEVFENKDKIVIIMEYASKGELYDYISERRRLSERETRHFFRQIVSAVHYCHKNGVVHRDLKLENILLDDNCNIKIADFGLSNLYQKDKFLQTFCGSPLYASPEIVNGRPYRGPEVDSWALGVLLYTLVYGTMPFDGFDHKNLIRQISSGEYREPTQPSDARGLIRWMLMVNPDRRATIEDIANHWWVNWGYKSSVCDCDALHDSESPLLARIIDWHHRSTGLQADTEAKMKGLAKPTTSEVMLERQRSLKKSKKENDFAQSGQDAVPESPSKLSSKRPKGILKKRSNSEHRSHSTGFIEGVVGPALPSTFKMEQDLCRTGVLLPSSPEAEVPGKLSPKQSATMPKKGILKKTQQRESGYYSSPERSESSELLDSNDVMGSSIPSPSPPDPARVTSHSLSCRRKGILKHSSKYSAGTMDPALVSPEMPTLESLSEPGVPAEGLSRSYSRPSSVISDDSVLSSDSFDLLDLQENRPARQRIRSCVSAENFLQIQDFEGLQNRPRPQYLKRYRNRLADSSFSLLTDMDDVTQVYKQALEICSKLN
Experimental: Active GST–NUAK1, GST–NUAK1[A195T] and GST–NUAK2 enzymes were purified using glutathione–Sepharose from HEK-293 cell lysates 36–48 h following the transient transfection of pEBG2T mammalian constructs expressing N-terminal GST-tagged NUAK1, NUAK1[A195T] or NUAK2. For peptide kinase assays, 96-well plates were used, and each reaction was performed in triplicate. Each reaction was set up in a total volume of 50 μl containing 100 ng of NUAK1 (wild-type or A195T mutant) or NUAK2 in 50 mM Tris/HCl (pH 7.5), 0.1 mM EGTA, 10 mM magnesium acetate, 200 μM Sakamototide, 0.1 mM [γ-^32P]ATP (450–500 c.p.m./pmol) and the indicated concentrations of inhibitors dissolved in DMSO. After incubation for 30 min at 30°C, reactions were terminated by adding 25 mM (final) EDTA to chelate the magnesium. Then, 40 μl of the reaction mix was spotted on to P81 paper and immersed in 50 mM orthophosphoric acid. Samples were washed three times in 50 mM orthophosphoric acid followed by a single acetone rinse and air drying. The incorporation of [γ-^32P]ATP into Sakamototide was quantified by Cerenkov counting. The values were expressed as a percentage of the DMSO control. IC50 curves were developed and IC50 values were calculated using GraphPad Prism software.

| SMILES | Inhibitor concentration for maximal suppression of MYPT1 Ser445 phosphorylation [1] | Suppression of MYPT1 Ser445 phosphorylation (in words) [1] | IC50 (NUAK1) |
| --- | --- | --- | --- |
| Cc1nc(Nc2cnn(C3CCNCC3)c2)nc2c1N(C)C(=O)c1cc3ccccc3cc1N2C [HTH-01-015] | 3 to 10 µM | only led to a partial inhibition | 100 nM |
| CCC(=O)Nc1cccc(Oc2nc(Nc3ccc(N4CCN(C)CC4)cc3OC)ncc2Cl)c1 [WZ4003] | 3 to 10 µM | suppressed MYPT1 phosphorylation in a dose-dependent manner | 20 nM |
| CN1C(=O)c2ccccc2N(C)c2nc(Nc3cnn(C4CCNCC4)c3)ncc21 [XMD-17-51] | – | only partially suppressed | 1.5 nM |
| CN1C(=O)c2cc3ccccc3cc2N(C)c2nc(Nc3cnn(C4CCNCC4)c3)ncc21 [XMD-18-42] | – | only partially suppressed | 30 nM |

Reference: article PMC3969223, “Characterization of WZ4003 and HTH-01-015 as selective inhibitors of the LKB1-tumour-suppressor-activated NUAK kinases” (Biochemical Journal, 2013)
